Measured values taken from BindingDB's records for PubMed 35440138 (University of Strathclyde, 2022).

Experiments:
[1] = Inhibition of LPA-mediated ATX activation in human BJeH cells assessed as AKT phosphorylation level incubated for 30 mins by Western blot analysis
[2] = Inhibition of LPA-mediated ATX activation in human BJeH cells assessed as ERK phosphorylation level incubated for 30 mins by Western blot analysis

For `C[C@H](CCC(=O)N1CCC(Oc2ccc([B-](F)(F)F)cc2)CC1)[C@H]1CC[C@H]2C3[C@@H](O)C[C@@H]4C[C@H](O)CC[C@]4(C)[C@H]3CC[C@]12C` (some centres not stated), the EC50 [1] was 100 nM and the EC50 [2] was 100 nM.
